In article PMC10046369, “Low-Affinity/High-Selectivity Dopamine Transport Inhibition Sufficient to Rescue Cognitive Functions in the Aging Rat” (Biomolecules, 2023):

Key:
Assay in all cases: biochemical
Set-up in all cases: KINOMEscan competition binding panel, per cent of control
Conditions in all cases: read-out: %Ctrl @ 2800nM
PAK7 = target: T1, PAK7 (Homo sapiens, UniProt Q9P286)
T1 construct: gene PAK5
Outline: (§1)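 Values are expressed as percent of control, calculated as ((test − positive control)/(negative control − positive control)) × 100, so lower numbers mean stronger hits. Binding was measured by KINOMEscan competition assay in a 450-kinase human panel including disease mutants, using the contractor's validated protocol.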

MTOR = MTOR (Homo sapiens, UniProt P42345)
Outline: as §1

PKN2 = PKN2 (Homo sapiens, UniProt Q16513)
Outline: as §1

MYLK2 = MYLK2 (Homo sapiens, UniProt Q9H1R3)
Outline: as §1

PDGFRA = PDGFRA (Homo sapiens, UniProt P16234)
Outline: as §1

CSNK1G1 = CSNK1G1 (Homo sapiens, UniProt Q9HCP0)
Outline: as §1

GRK2 = GRK2 (Homo sapiens, UniProt P25098)
Outline: as §1

STK36 = STK36 (Homo sapiens, UniProt Q9NRP7)
Outline: as §1

EPHA7 = EPHA7 (Homo sapiens, UniProt Q15375)
Outline: as §1

SLK = SLK (Homo sapiens, UniProt Q9H2G2)
Outline: as §1

EPHA4 = EPHA4 (Homo sapiens, UniProt P54764)
Outline: as §1

ROCK1 = ROCK1 (Homo sapiens, UniProt Q13464)
Outline: as §1

NEK4 = NEK4 (Homo sapiens, UniProt P51957)
Outline: as §1

PIK3CA(M1043I) = PIK3CA(M1043I) (Homo sapiens, UniProt P42336, M1043I)
Outline: as §1

INSRR = INSRR (Homo sapiens, UniProt P14616)
Outline: as §1

FLT1 = FLT1 (Homo sapiens, UniProt P17948)
Outline: as §1

p38-gamma = target: T2, p38-gamma (Homo sapiens, UniProt P53778)
T2 construct: gene MAPK12
Outline: as §1

MAP3K1 = MAP3K1 (Homo sapiens, UniProt Q13233)
Outline: as §1

ADCK4 = target: T3, ADCK4 (Homo sapiens, UniProt Q96D53)
T3 construct: gene COQ8B
Outline: as §1

HIPK4 = HIPK4 (Homo sapiens, UniProt Q8NE63)
Outline: as §1

PRKCD = PRKCD (Homo sapiens, UniProt Q05655)
Outline: as §1

MAK = MAK (Homo sapiens, UniProt P20794)
Outline: as §1

[1] = target: T4, ABL1(F317I)-phosphorylated (Homo sapiens, UniProt P00519, F317I)
T4 construct: phosphorylated
Outline: as §1

SRMS = SRMS (Homo sapiens, UniProt Q9H3Y6)
Outline: as §1

DYRK2 = DYRK2 (Homo sapiens, UniProt Q92630)
Outline: as §1

TNK2 = TNK2 (Homo sapiens, UniProt Q07912)
Outline: as §1

FGFR3(G697C) = FGFR3(G697C) (Homo sapiens, UniProt P22607, G697C)
Outline: as §1

Chain of SRMS (Q9H3Y6 whole entry): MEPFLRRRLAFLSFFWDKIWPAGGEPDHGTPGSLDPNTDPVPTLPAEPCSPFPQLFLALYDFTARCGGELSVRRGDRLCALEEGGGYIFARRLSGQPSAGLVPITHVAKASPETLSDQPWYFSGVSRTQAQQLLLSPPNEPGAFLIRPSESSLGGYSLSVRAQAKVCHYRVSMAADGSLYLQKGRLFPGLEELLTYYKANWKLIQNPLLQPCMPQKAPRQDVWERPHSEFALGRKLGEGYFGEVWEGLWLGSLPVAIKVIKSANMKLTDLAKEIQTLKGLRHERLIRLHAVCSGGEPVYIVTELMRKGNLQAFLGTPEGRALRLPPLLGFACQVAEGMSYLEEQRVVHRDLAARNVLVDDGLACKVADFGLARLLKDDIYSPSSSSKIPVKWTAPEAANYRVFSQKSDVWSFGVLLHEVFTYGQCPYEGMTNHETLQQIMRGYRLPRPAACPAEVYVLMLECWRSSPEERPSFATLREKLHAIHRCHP
Chain of STK36 (Q9NRP7 whole entry): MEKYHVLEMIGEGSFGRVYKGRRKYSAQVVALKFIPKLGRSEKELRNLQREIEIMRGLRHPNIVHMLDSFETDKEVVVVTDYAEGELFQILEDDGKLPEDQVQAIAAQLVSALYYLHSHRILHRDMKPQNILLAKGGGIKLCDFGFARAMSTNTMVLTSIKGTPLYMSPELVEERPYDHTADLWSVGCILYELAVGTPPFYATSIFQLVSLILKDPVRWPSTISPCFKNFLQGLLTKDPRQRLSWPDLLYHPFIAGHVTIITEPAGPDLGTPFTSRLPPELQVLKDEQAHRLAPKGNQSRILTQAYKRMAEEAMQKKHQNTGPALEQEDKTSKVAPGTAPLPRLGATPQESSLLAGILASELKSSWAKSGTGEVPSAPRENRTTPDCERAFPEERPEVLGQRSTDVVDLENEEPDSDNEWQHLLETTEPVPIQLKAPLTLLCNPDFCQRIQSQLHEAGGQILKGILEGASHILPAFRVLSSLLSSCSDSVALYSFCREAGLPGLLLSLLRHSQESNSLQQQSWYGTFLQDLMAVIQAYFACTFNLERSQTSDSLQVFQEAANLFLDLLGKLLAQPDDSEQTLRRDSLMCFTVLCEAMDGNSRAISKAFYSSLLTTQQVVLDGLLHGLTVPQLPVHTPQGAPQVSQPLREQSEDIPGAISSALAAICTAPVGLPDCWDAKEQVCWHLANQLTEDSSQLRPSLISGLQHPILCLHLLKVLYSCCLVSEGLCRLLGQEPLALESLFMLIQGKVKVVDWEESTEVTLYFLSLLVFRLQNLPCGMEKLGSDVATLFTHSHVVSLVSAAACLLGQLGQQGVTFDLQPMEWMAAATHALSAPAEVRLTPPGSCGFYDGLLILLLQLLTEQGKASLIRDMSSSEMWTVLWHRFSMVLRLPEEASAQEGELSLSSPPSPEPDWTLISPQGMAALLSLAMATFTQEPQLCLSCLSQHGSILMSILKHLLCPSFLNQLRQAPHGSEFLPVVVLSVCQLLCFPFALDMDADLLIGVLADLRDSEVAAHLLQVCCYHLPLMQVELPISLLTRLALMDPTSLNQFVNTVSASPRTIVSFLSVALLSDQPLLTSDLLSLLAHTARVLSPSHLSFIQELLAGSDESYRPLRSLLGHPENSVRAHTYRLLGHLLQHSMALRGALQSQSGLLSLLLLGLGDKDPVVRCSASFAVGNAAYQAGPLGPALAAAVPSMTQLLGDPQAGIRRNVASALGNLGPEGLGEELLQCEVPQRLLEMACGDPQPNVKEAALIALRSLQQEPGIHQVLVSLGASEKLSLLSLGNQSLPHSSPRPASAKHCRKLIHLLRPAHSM
Chain of MAK (P20794 whole entry): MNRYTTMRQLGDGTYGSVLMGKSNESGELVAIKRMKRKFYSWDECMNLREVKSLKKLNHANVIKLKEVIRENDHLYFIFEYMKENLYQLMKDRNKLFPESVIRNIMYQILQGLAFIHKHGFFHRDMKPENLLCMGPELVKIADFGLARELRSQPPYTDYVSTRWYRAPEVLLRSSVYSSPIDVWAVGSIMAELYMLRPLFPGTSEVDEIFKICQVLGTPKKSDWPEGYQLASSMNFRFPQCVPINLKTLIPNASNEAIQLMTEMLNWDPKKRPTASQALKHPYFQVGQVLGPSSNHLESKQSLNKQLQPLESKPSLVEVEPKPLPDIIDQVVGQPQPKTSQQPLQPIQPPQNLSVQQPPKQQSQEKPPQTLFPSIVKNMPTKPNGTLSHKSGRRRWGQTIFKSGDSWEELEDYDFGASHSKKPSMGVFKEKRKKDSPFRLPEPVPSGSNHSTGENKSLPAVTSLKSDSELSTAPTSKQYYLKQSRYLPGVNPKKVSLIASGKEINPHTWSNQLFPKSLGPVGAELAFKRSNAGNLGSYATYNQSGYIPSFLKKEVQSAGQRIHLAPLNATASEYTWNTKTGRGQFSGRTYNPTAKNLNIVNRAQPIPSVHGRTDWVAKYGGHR
Chain of EPHA7 (Q15375 whole entry): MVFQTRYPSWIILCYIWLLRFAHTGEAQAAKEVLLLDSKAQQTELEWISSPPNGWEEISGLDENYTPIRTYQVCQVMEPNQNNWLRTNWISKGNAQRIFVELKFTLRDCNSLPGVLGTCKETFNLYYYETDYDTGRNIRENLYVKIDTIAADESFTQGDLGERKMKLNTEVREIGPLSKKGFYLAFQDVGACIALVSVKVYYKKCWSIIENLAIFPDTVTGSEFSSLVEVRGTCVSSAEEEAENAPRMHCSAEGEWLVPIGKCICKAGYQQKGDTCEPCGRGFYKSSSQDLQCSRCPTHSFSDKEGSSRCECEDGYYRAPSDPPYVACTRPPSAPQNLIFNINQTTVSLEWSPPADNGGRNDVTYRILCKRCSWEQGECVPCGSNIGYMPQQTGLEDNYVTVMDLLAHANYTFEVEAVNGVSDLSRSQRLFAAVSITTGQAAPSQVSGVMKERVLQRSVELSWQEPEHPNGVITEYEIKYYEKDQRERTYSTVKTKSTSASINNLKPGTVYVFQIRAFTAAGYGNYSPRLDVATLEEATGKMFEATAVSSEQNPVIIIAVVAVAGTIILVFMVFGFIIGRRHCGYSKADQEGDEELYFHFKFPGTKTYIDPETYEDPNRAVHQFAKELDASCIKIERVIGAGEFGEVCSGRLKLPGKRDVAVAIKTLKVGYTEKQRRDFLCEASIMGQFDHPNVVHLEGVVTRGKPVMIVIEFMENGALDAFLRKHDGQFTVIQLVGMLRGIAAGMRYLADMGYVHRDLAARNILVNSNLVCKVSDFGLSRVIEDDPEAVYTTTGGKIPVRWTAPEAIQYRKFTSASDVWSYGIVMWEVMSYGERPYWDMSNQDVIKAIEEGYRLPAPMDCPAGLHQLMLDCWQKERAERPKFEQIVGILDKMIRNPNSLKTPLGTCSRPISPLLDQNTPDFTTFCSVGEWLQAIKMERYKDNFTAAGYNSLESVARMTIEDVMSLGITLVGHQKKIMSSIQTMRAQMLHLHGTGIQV
T4 sequence (P00519 whole entry F317I): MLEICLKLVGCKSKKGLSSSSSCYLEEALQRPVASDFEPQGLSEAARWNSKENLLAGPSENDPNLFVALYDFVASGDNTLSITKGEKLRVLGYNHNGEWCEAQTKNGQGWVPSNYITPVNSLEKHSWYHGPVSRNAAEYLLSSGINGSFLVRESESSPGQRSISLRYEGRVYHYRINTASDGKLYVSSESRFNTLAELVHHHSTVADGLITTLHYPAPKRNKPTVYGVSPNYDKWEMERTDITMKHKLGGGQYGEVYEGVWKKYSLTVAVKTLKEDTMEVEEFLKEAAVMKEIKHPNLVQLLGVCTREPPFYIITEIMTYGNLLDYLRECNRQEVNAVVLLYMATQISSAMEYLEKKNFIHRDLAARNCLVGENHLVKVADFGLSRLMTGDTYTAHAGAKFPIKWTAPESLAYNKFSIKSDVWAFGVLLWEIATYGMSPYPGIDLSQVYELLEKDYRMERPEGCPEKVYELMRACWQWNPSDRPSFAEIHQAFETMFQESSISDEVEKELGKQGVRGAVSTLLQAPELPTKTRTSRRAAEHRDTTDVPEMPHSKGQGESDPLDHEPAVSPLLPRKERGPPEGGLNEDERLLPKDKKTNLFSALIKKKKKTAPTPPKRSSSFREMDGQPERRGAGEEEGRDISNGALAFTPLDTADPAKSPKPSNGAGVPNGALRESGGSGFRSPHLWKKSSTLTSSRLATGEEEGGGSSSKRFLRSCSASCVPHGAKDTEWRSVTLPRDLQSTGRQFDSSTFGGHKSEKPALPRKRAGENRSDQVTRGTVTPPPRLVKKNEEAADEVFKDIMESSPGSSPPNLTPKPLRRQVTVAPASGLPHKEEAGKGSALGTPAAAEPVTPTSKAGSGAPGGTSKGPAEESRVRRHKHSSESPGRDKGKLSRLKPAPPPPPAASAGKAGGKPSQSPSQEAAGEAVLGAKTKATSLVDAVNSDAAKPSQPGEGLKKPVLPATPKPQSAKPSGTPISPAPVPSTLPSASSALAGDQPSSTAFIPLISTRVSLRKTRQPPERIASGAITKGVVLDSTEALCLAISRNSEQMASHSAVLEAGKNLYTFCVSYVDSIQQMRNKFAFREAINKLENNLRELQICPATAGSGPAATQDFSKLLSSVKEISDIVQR
T3 sequence (Q96D53 whole entry): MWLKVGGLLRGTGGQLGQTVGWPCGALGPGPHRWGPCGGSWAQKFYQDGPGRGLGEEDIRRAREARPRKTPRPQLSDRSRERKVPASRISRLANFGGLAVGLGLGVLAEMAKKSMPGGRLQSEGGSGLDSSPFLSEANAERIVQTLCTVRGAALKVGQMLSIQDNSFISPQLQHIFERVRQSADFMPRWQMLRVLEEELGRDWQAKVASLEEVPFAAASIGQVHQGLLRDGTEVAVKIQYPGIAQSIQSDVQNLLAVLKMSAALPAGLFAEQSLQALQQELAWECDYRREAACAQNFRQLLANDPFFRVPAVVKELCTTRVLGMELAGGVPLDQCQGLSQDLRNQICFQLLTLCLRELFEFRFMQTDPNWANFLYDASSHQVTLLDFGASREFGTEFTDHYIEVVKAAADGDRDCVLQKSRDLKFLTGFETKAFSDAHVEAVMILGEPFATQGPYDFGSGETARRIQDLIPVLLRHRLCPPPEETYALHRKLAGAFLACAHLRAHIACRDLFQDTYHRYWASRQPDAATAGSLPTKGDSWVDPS

[O-][S@@+](Cc1cncs1)C(c1ccccc1)c1ccccc1 [S-CE-123, (S)-5-((Benzhydrylsulfinyl)Methyl)Thiazole]
remaining binding at 2.8 µM (PAK7): 98%
remaining binding at 2.8 µM (MTOR): 100%
remaining binding at 2.8 µM (PKN2): 86%
remaining binding at 2.8 µM (MYLK2): 99%
remaining binding at 2.8 µM (PDGFRA): 98%
remaining binding at 2.8 µM (CSNK1G1): 96%
remaining binding at 2.8 µM (GRK2): 100%
remaining binding at 2.8 µM (STK36): 88%
remaining binding at 2.8 µM (EPHA7): 96%
remaining binding at 2.8 µM (SLK): 100%
remaining binding at 2.8 µM (EPHA4): 97%
remaining binding at 2.8 µM (ROCK1): 100%
remaining binding at 2.8 µM (NEK4): 83%
remaining binding at 2.8 µM (PIK3CA(M1043I)): 63%
remaining binding at 2.8 µM (INSRR): 94%
remaining binding at 2.8 µM (FLT1): 100%
remaining binding at 2.8 µM (p38-gamma): 100%
remaining binding at 2.8 µM (MAP3K1): 85%
remaining binding at 2.8 µM (ADCK4): 96%
remaining binding at 2.8 µM (HIPK4): 100%
remaining binding at 2.8 µM (PRKCD): 89%
remaining binding at 2.8 µM (MAK): 94%
remaining binding at 2.8 µM [1]: 92%
remaining binding at 2.8 µM (SRMS): 99%
remaining binding at 2.8 µM (DYRK2): 86%
remaining binding at 2.8 µM (TNK2): 100%
remaining binding at 2.8 µM (FGFR3(G697C)): 96%
